According to patent publication US4098782A, “(His^5)-somatostatin and analogues thereof” (American Home Products Corporation, priority 1977, dated 1978):
Bridge positions count the residues as written; N and C are the ends. Peptide text beside a SMILES is read from it.

Experiments:
Assay type in all cases: in vivo
[1] = tested on: insulin; test: Arginine-stimulated insulin secretion in Nembutal-anesthetized rats; details: for Insulin: albino male rats, blood 15 min after dose (5 min after arginine), control 372 ± 47
Protocol: (§1) Albino male rats were administered Nembutal intraperitoneally at a dose of 50 milligrams per kilogram. Fifteen minutes later a subcutaneous injection of the test compound or physiological saline was administered. Ten minutes later 0.5 milliliters of arginine (300 milligrams per milliliter, pH 7.2) is injected into the heart. Five minutes after receipt of the arginine the rats are decapitated and blood is collected into trasylol-EDTA. An appropriate aliquot was assayed for growth hormone, insulin and glucagon.

[2] = tested on: glucagon; test: Arginine-stimulated glucagon secretion in Nembutal-anesthetized rats; details: for Glucagon: albino male rats, blood 15 min after dose (5 min after arginine), control 51 ± 4, * = p < 0.01
Protocol: as §1

[3] = tested on: growth hormone; test: Arginine-stimulated growth hormone secretion in Nembutal-anesthetized rats; details: for GH: albino male rats, blood 15 min after dose (5 min after arginine), control 288 ± 30, * = p < 0.01
Protocol: as §1

| SMILES | Insulin ([1]; 200 ug/kg subcutaneous, + = p < 0.05) | Glucagon ([2]; 200 ug/kg subcutaneous) | GH ([3]; 200 ug/kg subcutaneous) | Insulin ([1]; 1300 ug/kg subcutaneous) | effect on insulin levels (in words) ([1]; summary of rat assay) | Glucagon ([2]; 1300 ug/kg subcutaneous) | reducing secretion of glucagon (in words) ([2]; summary of rat assay) | GH ([3]; 1300 ug/kg subcutaneous) | reducing secretion of growth hormone (in words) ([3]; summary of rat assay) |
| --- | --- | --- | --- | --- | --- | --- | --- | --- | --- |
| C[C@H](N)C(=O)NCC(=O)N[C@H]1CSSC[C@@H](C(=O)O)NC(=O)[C@H](CO)NC(=O)[C@H]([C@@H](C)O)NC(=O)[C@H](Cc2ccccc2)NC(=O)[C@H]([C@@H](C)O)NC(=O)[C@H](CCCCN)NC(=O)[C@H](Cc2c[nH]c3ccccc23)NC(=O)[C@H](Cc2ccccc2)NC(=O)[C@H](Cc2ccccc2)NC(=O)[C@H](CC(N)=O)NC(=O)[C@H](CCCCN)NC1=O [SRIF, reference compound] | 232 ± 23 μU/ml | 26 ± 6 pg/mL | 66 ± 11 ng/mL |  |  |  |  |  |  |
| C[C@H](N)C(=O)NCC(=O)N[C@H]1CSSC[C@@H](C(=O)O)NC(=O)[C@H](CO)NC(=O)[C@H]([C@@H](C)O)NC(=O)[C@H](Cc2ccccc2)NC(=O)[C@H]([C@@H](C)O)NC(=O)[C@H](CCCCN)NC(=O)[C@H](Cc2c[nH]c3ccccc23)NC(=O)[C@H](Cc2ccccc2)NC(=O)[C@H](Cc2ccccc2)NC(=O)[C@H](Cc2c[nH]cn2)NC(=O)[C@H](CCCCN)NC1=O [(His^5)SRIF, L-Alanyl-glycyl-L-cysteinyl-lysyl-L-histidyl-L-phenylalanyl-L-phenylalanyl-L-tryptophyl-L-lysyl-L-threonyl-L-phenylalanyl-L-threonyl-L-seryl-L-cysteine(3-14 cyclic)disulfide] (H-AGCKHFFWKTFTSC-OH; disulfide 3-14) |  |  |  | 390 ± 94 μU/ml | without materially affecting insulin levels | 31 ± 6 pg/mL | effective agent for reducing secretion of growth hormone and glucagon | 83 ± 15 ng/mL | effective agent for reducing secretion of growth hormone |
